Measurements taken from patent publication US7964565B2, “Method of inhibiting inflammation in a mammal by administering Bcl protein” (University of Washington Center for Commercialization, a …, priority 2004, dated 2011).

B1: rA1: human A1 minus 25 amino acids at the carboxy terminal and addition of 6 histidine on the remaining protein (protein, listed as Homo sapiens)
chain: MTDCEFGYIYRLAQDYLQCVLQIPQPGSGPSKTSRVLQNVAFSVQKEVEKNLKSCLDNVNVVSVDTARTLFNQVMEKEFEDGIINWGRIVTIFAFEGILIKKLLRQQIAPDVDTYKEISYFVAEFIMNNTGEWIRQNGGWENGFVKKFEPKSHHHHHH

Tests used:
[1] = system: C57BL/6 mice, hind-limb skeletal muscle ischemia-reperfusion injury; assay: Hind-limb tourniquet ischemia-reperfusion, plasma creatine kinase; assay type: in vivo, mouse; conditions: tourniquet 90 min, reperfusion 3 hours
Protocol: Skeletal muscle was made ischemic by applying a tourniquet to the hind-limbs of C57BL/6 mice for 90 minutes, then removing the tourniquet and allowing reperfusion for an additional 3 hours. Mice were treated with active peptide 1 (SEQ ID NO:17) or peptide 2 (SEQ ID NO:18) or peptide 3 (SEQ ID NO:19), or with the scrambled (control) peptide (SEQ ID NO:20). Peptide-1 (SEQ ID NO:17) is from the BH4 region of Bcl-2. Peptide-2 (SEQ ID NO:18) is from the first alpha helix of A1. Peptide-3 (SEQ ID NO:19) is from the BH4 region of Bcl-XL. The amino acid sequences of peptide 1 (SEQ ID NO:17), peptide 2 (SEQ ID NO:18), peptide 3 (SEQ ID NO:19), and the scrambled (control) peptide (SEQ ID NO:20) are set forth in Table 1.
At the end of the 3 hours of reperfusion the mice were killed, and blood was taken for determination of plasma creatine kinase (CK) concentration. The CK concentration was used as an indicator of muscle injury. Elevated levels of CK indicate higher levels of muscle injury. […] The CK concentration for peptide 1 (SEQ ID NO:17) treated mice was 19,020+/−5481 IU/L (n=12) compared with control peptide (SEQ ID NO:20) where CK concentration was 60,530+/−5759 IU/L (n=12). The CK concentration for peptide 2 (SEQ ID NO:18) treated mice was 33,860+/−5997 IU/L (n=11) compared with control peptide (SEQ ID NO:20) where CK concentration was 69,430+/−11,170 IU/L (n=12). The CK concentration for peptide 3 (SEQ ID NO:19) treated mice was 49,500+/−3,901 IU/L (n=5) compared with control peptide (SEQ ID NO:20) where CK concentration was 80,880+/−11,430 IU/L (n=6).

[2] = system: C57BL/6 mice, hind limb skeletal muscle ischemia-reperfusion injury; assay: Hind limb ischemia-reperfusion by aortic cross-clamp, plasma creatine kinase; assay type: in vivo; conditions: protein injected i.p. the day before 90 min hind limb ischemia and 180 min reperfusion; 12 mice per group; rBcl-2 1 μg per mouse vs combined rUbiquitin/vehicle; rA1 vs rUbiquitin
Protocol: Mouse skeletal muscle was made ischemic by cross-clamping the aorta distal to the renal artery for 90 minutes, then the clamp was removed and hind limb reperfusion continued for 3 hours. At the end of reperfusion (3 hours after clamp removal) the mice were killed, and the concentration of plasma creatine kinase (CK) was measured and used as an indicator of injury (creatine kinase concentration increases as a result of skeletal muscle injury).
Blood from EμT-Bcl-2 mice and their littermate control mice was drawn into heparin and plasma was extracted by centrifugation. One ml of plasma from EμT-Bcl-2 mice, or one ml of plasma from littermate control mice, was injected into the peritoneum of C57BL/6 mice the day before the mice were subjected to 90 minutes of ischemia and 3 hours of reperfusion as described in Example 1 herein. Blood was drawn from the mice and plasma CK concentration was determined at the end of reperfusion.
Control Jaws II cells expressed only EGFP. […]
Medium from cell cultures of hBcl-2-Jaws II cells and EGFP-Jaws II cells was harvested 24 hours after the start of incubation and concentrated approximately 10-fold using centrifugal filters with a molecular size cut-off of approximately 3 kD. […] Plasma was extracted from the mice after ischemia-reperfusion, and plasma CK concentration was determined. […]

[3] = experiment with peptide 2, n=11 peptide, n=12 control

| Molecule | plasma CK concentration ([1]; experiment with peptide 1, n=12 per group) | plasma CK concentration [1, 3] | plasma CK concentration ([1]; experiment with peptide 3, n=5 peptide, n=6 control) | plasma creatine kinase levels vs control [2] |
| --- | --- | --- | --- | --- |
| control peptide: scrambled (control) peptide; TWHMYGNQRDYIGDRSKIVYKLEYE (SEQ ID NO:20) | 60,530+/−5759 IU/L | 69,430+/−11,170 IU/L | 80,880+/−11,430 IU/L | – |
| peptide 2: from the first alpha helix of A1; FGYIYRLAQDYLQCVLQIPZPGSGP (SEQ ID NO:18) | – | 33,860+/−5997 IU/L | – | – |
| B1 | – | – | – | significantly (p<0.05) lower |
